Results on 16 molecules are retold here after ChEMBL document CHEMBL4739717, “Methods of treating cartilage disorders through inhibition of clk and dyrk” (2020).

Assay [1] in a line: Induction of chondrogenesis in human MSC assessed as maximum activity at 300 nM incubated for 6 days by rhodamine B and Nile red staining based imaging analysis relative to control. In kind it is functional. The note with it: BMMSC, 144 h, time 6 day.
Assay [2] is described as follows: Effect on Wnt signaling pathway in human SW480 cells harbouring TCF/LEF luciferase reporter gene and SP5-Luc reporter gene incubated for 36 to 48 hrs by luminescence assay. In kind it is cell-based.
The target in assay [3] is Dual specificity tyrosine-phosphorylation-regulated kinase 1A (Homo sapiens, UniProt Q13627). As to the kind of experiment: Inhibition of recombinant DYRK1A (unknown origin) using Ser/Thr 18 peptide as substrate incubated for 1 hr in presence of ATP by FRET assay.
A short description of assay [4]: Induction of chondrogenesis in human MSC assessed as incubated for 6 days by rhodamine B and Nile red staining based imaging analysis. Type of assay: functional. Conditions: bmmsc.

SMILES strings stand for the structures.

On to `CN1CCN(c2cccc3[nH]c(-c4n[nH]c5ccc(-c6cncc(CN7CCCCC7)c6)cc45)cc23)CC1`, for which the maximum response (Emax) at 0.3 µM in assay [1] stood at 198%. Further, the half-maximal effective concentration (EC50) in assay [2] was determined as 4970 nM; in assay [3], 35 nM; in assay [4], 100 nM.
With `CC(C)(C)CC(=O)Nc1cncc(-c2ccc3[nH]nc(-c4nc5ccncc5[nH]4)c3c2)c1`, in assay [1], the Emax at 0.3 µM stood at 152%. In addition, the concentration for a half-maximal effect (EC50) is 21 nM in assay [2], 3 nM in assay [3] and 100 nM in assay [4].
The matching figures for `FC1(F)CCN(Cc2cncc(-c3ccc4[nH]nc(-c5cc6cnccc6[nH]5)c4n3)c2)C1`: 134%, 45 nM, 3 nM and 300 nM.
With `CCC(=O)Nc1cncc(-c2cc3c(-c4cc5c(N6CCN(C)CC6)nccc5[nH]4)n[nH]c3cn2)c1`, the Emax at 0.3 µM in assay [1] was determined as 70%. Further, the EC50 in assay [2] is above 10000 nM; in assay [3], 3 nM; in assay [4] it was 30 nM.
The matching figures for `O=C(Nc1cncc(-c2cnc3[nH]nc(-c4nc5c(-c6cccc(F)c6)cncc5[nH]4)c3c2)c1)C1CC1`: 148%, 11 nM, 75 nM and 10 nM.
For the molecule `CC(C)C(=O)Nc1cncc(-c2ccc3[nH]nc(-c4nc5c(-c6ccccc6F)cncc5[nH]4)c3n2)c1`, the Emax at 0.3 µM in assay [1] turned out to be 181%. Further, the half-maximal effective concentration (EC50) in assay [2] is above 10000 nM; in assay [3] it was 30 nM; in assay [4] it was 10 nM.
For `c1cncc(-c2ccc3[nH]nc(-c4nc5c(-c6cccnc6)cncc5[nH]4)c3c2)c1`, in that order: 159%, 35 nM, 76 nM and 30 nM.
Turning to `CC(C)(C)C(=O)Nc1cncc(-c2cnc3[nH]nc(-c4nc5c(-c6ccoc6)cncc5[nH]4)c3c2)c1`, in assay [1], the Emax at 0.3 µM was 144%. The EC50 in assay [2] amounted to 70 nM; in assay [3], 12 nM; in assay [4] it was 30 nM.
The matching figures for `c1cncc(-c2ccc3[nH]nc(-c4nc5c(-c6cccnc6)ccnc5[nH]4)c3n2)c1`: 94.6%, 1510 nM, 28 nM and 300 nM.
The matching figures for `CN(C)Cc1cncc(-c2ccc3[nH]nc(-c4cc5c(N6CCCCC6)cccc5[nH]4)c3c2)c1`: 205%, 575 nM, 71 nM and 10 nM.
For `c1csc(-c2ccnc3[nH]c(-c4n[nH]c5ccc(-c6cncc(OC7CCNCC7)c6)nc45)cc23)c1`, in that order: 51.4%, 3550 nM, 43 nM and 300 nM.
Take `Fc1cccc(-c2ccnc3[nH]c(-c4n[nH]c5ncc(-c6cn[nH]c6)cc45)nc23)c1`: the Emax at 0.3 µM in assay [1] came out at 110%. In addition, the concentration for a half-maximal effect (EC50) in assay [2] was found to be 30.2 nM; in assay [3] it was 16 nM; in assay [4], 100 nM.
Take `CN(C)c1cncc(-c2cc3c(-c4cc5cnccc5[nH]4)n[nH]c3cn2)c1`: the maximum response (Emax) at 0.3 µM in assay [1] was 101%. In addition, the EC50 amounted to 3060 nM in assay [2], 12 nM in assay [3] and 300 nM in assay [4].
For `Nc1cncc(-c2cnc3[nH]nc(-c4cc5c(-c6ccccc6F)nccc5[nH]4)c3c2)c1`, the Emax at 0.3 µM in assay [1] came out at 86%. The values for the 50% effective concentration (EC50) in assay [2], in assay [3] and in assay [4] were 197 nM, 31 nM and 30 nM, respectively.
For `CCC(=O)Nc1cncc(-c2cnc3[nH]nc(-c4nc5c(-c6ccc(F)cc6)cncc5[nH]4)c3c2)c1`, in assay [1], the Emax at 0.3 µM stood at 143%. Besides, the EC50 stood at 11 nM in assay [2], 11 nM in assay [3] and 300 nM in assay [4].
On to `Nc1cncc(-c2ccc3[nH]nc(-c4cc5c(-c6cccnc6)nccc5[nH]4)c3c2)c1`, for which the Emax at 0.3 µM in assay [1] amounted to 178%. The concentration for a half-maximal effect (EC50) amounted to 146 nM in assay [2], 2 nM in assay [3] and 100 nM in assay [4].

As a reminder, the Emax is the size of the effect at its maximum, as opposed to the concentration needed. In general, EC50 refers to the concentration that produces a half-maximal response.
